# Columns and labels:
# Format in all cases: cell-based
# [1] = system: ATF4 in HCT116 colorectal cancer cells; experiment: HCT116 amino acid starved (-AA) ATF4 Western blot; settings: Homo sapiens, HCT-116, 4 h
# Method: HCT116 colorectal cancer cells (catalog #CCL-247) were obtained from the American Type Culture Collect (ATTC, Manassas, VA). Briefly, cells were grown in RPMI 1640 supplemented with 10% heat inactivated fetal bovine serum (Invitrogen, Carlsbad, CA) and 1% Penicillin/Streptomycin/L-Glutamine at 37° C., 5% CO2, and 95% humidity. Cells were expanded until reaching 70-95% confluency at which point they were subcultured or harvested for assay use. Cells were seeded in 12-well culture plate at five hundred thousand cells per well in 1 mL complete growth medium and incubated overnight at 37° C., 5% CO2, and 95% humidity. The next day each well was replaced with 1 mL Earle's Balanced Salt Solution (EBSS, Invitrogen, Carlsbad, CA) supplemented with 10% Dialyzed Fetal Bovine Serum, 5.5 mM Glucose, 1% Penicillin/Streptomycin and 1% Vitamin solution (thermo #11120052). A serial dilution of test compound was dispensed into well. Plates were incubated for 4 h at 37° C., 5% CO2, and 95% humidity. […] Western blot was performed on each lysate to quantify phospho-GCN2 (Thr899), total GCN2, ATF4 and beta-Actin. […] Data were analyzed using GraphPad Prism software (GraphPad, San Diego, CA) to calculate IC50 values.
# [2] = system: ATF4 in H929 multiple myeloma cells; experiment: H929 ATF4 ELISA assay
# Method: H929 multiple myeloma cells (catalog #CRL-9068) were obtained from the American Type Culture Collection (ATTC, Manassas, VA). Briefly, cells were grown in RPMI-1640 medium supplemented with 20% heat-inactivated fetal bovine serum (catalog #A3840002, ThermoFisher Scientific, Waltham, MA), 1% Penicillin/Streptomycin/L-Glutamine (catalog #10378016, ThermoFisher Scientific, Waltham, MA), and 0.05 mM 2-mercaptoethanol (catalog #21985-023, ThermoFisher Scientific, Waltham, MA) at 37° C., 5% CO2, and 95% humidity. Cells were expanded until reaching one million five hundred thousand cells per mL at which time they were sub-cultured or harvested for assay use. One million five hundred thousand cells per well in 1 mL complete growth medium were dispensed into 12-well plates and incubated overnight. A serial dilution of test compound was added, and cells were incubated at 37° C., 5% CO2, and 95% for four hours. Cells were lysed then ATF4 levels were measured using an ELISA assay (Proteintech, Rosemont, IL). Absorbance is measured at 450 nm and 544 nM using a Synergy2 or equivalent reader (Biotek, Winooski VT). Data were analyzed using PRISM software (Graphpad, San Diego, CA) to calculate fold stimulation of cellular ATF4 relative to vehicle treated control.
# [3] = system: RPMI8226 Multiple Myeloma cells; experiment: Cell proliferation, combination with standard of care, RPMI8226; settings: Homo sapiens, RPMI-8226; with 333 nM dexamethasone, 96 h, FIG. 6A; read-out: inhibition of cell proliferation IC50, combination treatment
# Method: H929, RPMI8226, GA-10 and DoHH-2 cells (catalog #CRL-9068) were obtained from the American Type Culture Collection (ATTC, Manassas, VA). H929 Cells were maintained in RPMI-1640 medium supplemented with 20% heat-inactivated fetal bovine serum (catalog #A3840002, ThermoFisher Scientific, Waltham, MA), 1% Penicillin/Streptomycin/L-Glutamine (catalog #10378016, ThermoFisher Scientific, Waltham, MA), and 0.05 mM 2-mercaptoethanol (catalog #21985-023, ThermoFisher Scientific, Waltham, MA). […]
# For cell proliferation assay appropriate number of cells (Forty thousand cells for H929. Twenty thousand cells for RPMI8226 and GA-10. Eight thousand cells for DoHH-2) were seeded per well in 200 μL in respective medium were dispensed into a 96-well black clear bottom plate. […] Plates were read on a Synergy2 or equivalent reader (Biotek, Winooski VT) using an excitation of 540 nm and an emission of 600 nm. At the end of the incubation of DoHH-2, cell viability was determined using CellTiter-Glo® assay (Promega, Madison, WI). Luminescence was measured using EnVision MultiLabel Reader (PerkinElmer, Waltham, MA). Data was analyzed using GraphPad Prism software (GraphPad, San Diego, CA) to calculate IC50 values.
smiles,measurement,setting,value
"Cn1cc(-c2cccc(NS(=O)(=O)c3cc(Cl)cc(CO)c3Cl)c2F)c2c(N)ncnc21 [Example 2, N-(3-(4-amino-7-methyl-7H-pyrrolo[2,3-d]pyrimidin-5-yl)-2-fluorophenyl)-2,5-dichloro-3-(hydroxymethyl)benzenesulfonamide]",IC50,[1],≤ 100 nM
same,concentration at which maximum ATF4 stimulation occurred,[2]; FIG. 1,around 41 nM
same,maximum stimulation in ATF4 signal,[2]; FIG. 1,13 fold
same,concentrations at which ATF4 expression reverted to basal levels,"[2]; FIG. 1, inhibitory phase",≥ 370 nM
same,H929 NS ATF4 ELISA (ATF4 stim),"[2]; four hours, relative to vehicle treated control",+++ (an ATF4 stim greater than 10 fold and less than or equal to 20 fold)
same,IC50,[3],7 nM
